Values of other authors as cited in paper PMC9475448, “What a difference a methylene makes: replacing Glu with Asp or Aad in the Lys-urea-Glu pharmacophore of PSMA-targeting radioligands to reduce kidney and salivary gland uptake” (Theranostics, 2022).
pKi: −log10 of the molar value.

How the values were obtained:
PSMA = molecular target: T1, PSMA (Homo sapiens, UniProt Q04609); parameters: method as in PMID 30097503; conditions: read-out: Ki (PSMA inhibitor); cited from earlier work
T1 construct: LNCaP cells (400,000/well) were plated onto a 24-well poly-D-lysine coated plate for 48 h; endogenous in cells; host or cells: LNCaP prostate cancer cells
T1 sequence (Q04609 whole entry): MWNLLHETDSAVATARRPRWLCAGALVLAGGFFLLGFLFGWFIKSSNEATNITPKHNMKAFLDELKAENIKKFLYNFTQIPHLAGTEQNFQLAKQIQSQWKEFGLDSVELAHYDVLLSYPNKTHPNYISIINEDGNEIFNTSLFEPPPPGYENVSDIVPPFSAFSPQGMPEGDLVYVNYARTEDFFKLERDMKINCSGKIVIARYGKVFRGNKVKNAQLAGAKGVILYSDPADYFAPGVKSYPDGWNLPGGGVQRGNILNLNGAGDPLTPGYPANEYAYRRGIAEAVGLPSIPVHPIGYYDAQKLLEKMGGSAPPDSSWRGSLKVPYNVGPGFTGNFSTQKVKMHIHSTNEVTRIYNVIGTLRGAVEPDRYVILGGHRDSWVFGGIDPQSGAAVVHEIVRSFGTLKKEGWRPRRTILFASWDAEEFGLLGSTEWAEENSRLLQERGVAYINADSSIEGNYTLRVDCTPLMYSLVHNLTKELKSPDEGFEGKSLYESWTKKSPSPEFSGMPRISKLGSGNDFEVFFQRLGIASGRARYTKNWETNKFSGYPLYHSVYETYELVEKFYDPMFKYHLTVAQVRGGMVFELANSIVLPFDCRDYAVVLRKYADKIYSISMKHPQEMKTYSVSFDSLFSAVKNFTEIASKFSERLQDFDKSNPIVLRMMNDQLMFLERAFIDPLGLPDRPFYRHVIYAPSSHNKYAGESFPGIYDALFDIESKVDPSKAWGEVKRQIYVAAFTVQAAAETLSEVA

mouse model = conditions: up to 657 mg/kg; cited from earlier work
parotid gland = conditions: in vivo; cited from earlier work

Compound: N[C@@H](CCC(=O)O)C(=O)[O-].[Na+] [monosodium glutamate]
- pKi (PSMA): 6.05
- Effect of pretreatment on [68Ga]Ga-PSMA-11 uptake (mouse model): reduced uptake of [^68Ga]Ga-PSMA-11 in salivary glands and kidneys but had no effect on tumor uptake

Compound: botulinum toxin A
- Reduction in SUVmean of the treated parotid gland in [68Ga]Ga-PSMA-11 scan vs baseline (parotid gland): up to 64%
